# Reference: patent publication US12485179B2, “Cholecystokinin B receptor targeting for imaging and therapy” (Purdue Research Foundation, priority 2012, dated 2025)
# Experiments:
# [1] = target: T1, CCK2i4svR (Homo sapiens, UniProt P32239); assay: Binding of 99mTc conjugates to HEK CCK2i4svR cells (cell bound radioactivity)
# T1 construct: expressed in transfected cells; host or cells: HEK-293, G418-selected, from Dr. Mark Hellmich (University of Texas at Galveston)
# T1 sequence (P32239 1-516 isoform P32239-2): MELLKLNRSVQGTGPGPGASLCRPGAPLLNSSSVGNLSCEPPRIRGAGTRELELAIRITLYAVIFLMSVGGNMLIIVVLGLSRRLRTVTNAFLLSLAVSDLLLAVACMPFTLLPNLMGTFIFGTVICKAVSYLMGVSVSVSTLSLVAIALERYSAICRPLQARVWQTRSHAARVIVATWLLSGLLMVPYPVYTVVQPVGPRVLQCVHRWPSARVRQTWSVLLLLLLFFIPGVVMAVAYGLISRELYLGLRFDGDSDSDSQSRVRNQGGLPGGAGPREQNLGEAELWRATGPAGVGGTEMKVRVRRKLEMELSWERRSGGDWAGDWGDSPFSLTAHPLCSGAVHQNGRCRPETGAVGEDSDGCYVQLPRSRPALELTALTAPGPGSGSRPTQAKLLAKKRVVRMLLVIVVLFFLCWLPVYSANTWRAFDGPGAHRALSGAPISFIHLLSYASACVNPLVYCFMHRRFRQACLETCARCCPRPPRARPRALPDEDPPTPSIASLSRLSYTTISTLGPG
# Procedure: (§1) CRL-1, CRL-2, CRL-3 and CRL-4 were chelated to ^99mTc and tested for binding using two transfected cell lines of HEK-CCK2R (HEK-293 CCK2R) and HEK-CCK2R splice cell line (HEK CCK2i4svR), obtained from Dr. Mark Hellmich (University of Texas at Galveston). Cells were cultured in Dulbecco's modified Eagles (Gibco) supplemented with 10% Fetal Bovine Serum and G418 disulfate (SIGMA; 400 μg/ml), 1% penicillin/streptomycin at 37° C. in a humidified 95% air, 5% CO2 atmosphere.
# (§2) Competition studies were performed using 100 fold excess of free Z-360 containing corresponding peptide linker and no chelating moiety. HEK 293 CCK2R and HEK CCK2i4svR were seeded onto 24 well plates and allowed to become confluent over 48-72 hours. Spent medium in each well was replaced with 0.5 ml fresh media containing 0.5% BSA and increasing concentrations of the test article. After incubating for 1 h at 37° C. cells were rinsed with incubation solution (2×1.0 ml) to remove any unbound radioactivity. Cells were then resuspended on 0.5 ml 0.25N NaOH and cell radioactivity was counted using a γ-counter. The dissociation constant (KD) was calculated using a plot of cell bound radioactivity versus the concentration of the radiotracer using Graphpad Prism 4 and assuming a non-cooperative single site binding equilibrium.
# [2] = test system: HEK CCK2i4svR tumors; assay: In vivo radio-imaging and bio-distribution, HEK CCK2i4svR tumor xenografts; set-up: species or system nu/nu mice
# Procedure: In order to test the in vivo specificity of CRL-3 chelated with ^99mTc, HEK CCK2R and CCK2i4svR subcutaneous tumors were produced in nude mice according to known methods. Athymic female nu/nu mice were purchased from Harlan Laboratories and maintained on normal rodent chow and housed in a sterile environment on a standard 12 hour light and dark cycle for the duration of the study. All animal procedures were approved by the Purdue Animal Care and Use Committee in accordance with NIH guidelines.
# 150 microcurie of CRL-3 ^99mTc was injected intravenously into each mouse. FIGS. 3A-B show an overlay of whole-body radio-images on white light photographs of mice bearing images of HEK CCK2R (a, b) and HEK CCKRi4sv (c, d) tumor xenografts in nu/nu mice two hours after the administration of CRL-3 ^99mTc. Kidneys were shielded with a lead plate. Mice a and c had the radioactive conjugate administered along with 100 fold of free unlabeled targeting ligand. In mice b and d, only the radio-conjugate CRL-3 ^99mTc was administered. Arrows indicate location of the tumor.
# Following the above radio-imaging studies, animals were dissected and selected organs/tissues were collected into pre-weighed γ-counter tubes. Radioactivity of weighed tissues and test compounds were counted in a γ-counter. CPM values were decay corrected and results were calculated as % injected dose per gram of wet tissue (% ID/g). […]
# [3] = target: T2, CCK2R (Homo sapiens, UniProt P32239); assay: Binding of 99mTc conjugates to HEK-293 CCK2R cells (cell bound radioactivity); set-up: expressed in transfected cells; host or cells: HEK-293, G418-selected, from Dr. Mark Hellmich (University of Texas at Galveston)
# T2 sequence (P32239 1-447): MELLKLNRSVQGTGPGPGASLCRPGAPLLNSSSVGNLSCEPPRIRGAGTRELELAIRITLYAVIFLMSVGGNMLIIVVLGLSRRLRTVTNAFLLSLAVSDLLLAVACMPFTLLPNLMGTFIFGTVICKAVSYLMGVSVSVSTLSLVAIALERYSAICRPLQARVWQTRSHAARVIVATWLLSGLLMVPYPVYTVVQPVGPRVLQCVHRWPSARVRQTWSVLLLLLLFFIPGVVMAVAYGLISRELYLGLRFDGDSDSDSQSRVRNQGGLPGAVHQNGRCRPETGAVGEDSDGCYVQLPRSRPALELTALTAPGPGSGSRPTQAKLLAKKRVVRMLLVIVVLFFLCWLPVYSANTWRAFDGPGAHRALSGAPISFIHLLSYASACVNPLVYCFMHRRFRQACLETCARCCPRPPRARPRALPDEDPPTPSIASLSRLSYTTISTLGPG
# Procedure: as §1, §2
compound,measurement,setting,value
CC(C)(C)C(=O)CN1C(=O)[C@H](NC(=O)Nc2cccc(C(=O)NCCCCCCCC(=O)N[C@H](CCC(=O)O)C(=O)N[C@H](CCC(=O)NC[C@H](O)[C@@H](O)[C@H](O)[C@H](O)CO)C(=O)N[C@H](CCC(=O)O)C(=O)N[C@H](CCC(=O)NC[C@H](O)[C@@H](O)[C@H](O)[C@H](O)CO)C(=O)NC[C@@H]3[NH][99Tc]45[S]C[C@@H](C(=O)O)[N]4C(=O)[C@H](CC(=O)O)[N]5C3=O)c2)CN(C2CCCCC2)c2ccccc21 (stereo partly shown) [CRL-3 ^99mTc],Kd,[1],4 nM
same,"accumulation of radio-conjugate, whole-body radio-image","[2]; 150 microcurie i.v., two hours after administration, kidneys shielded",accumulated mainly in the receptor expressing tumor with little or no accumulation in other tissues except the kidney
same,bio-distribution of radiotracer in organs/tissues,"[2]; after radio-imaging, n=5 mice/group",only the tumor and kidneys show excessive accumulation of radiotracer
same,Kd,[3],30 nM
